Measurements published in patent US12329149B2, “Apparatus and methods for irradiating organ perfusates” (University Health Network, priority 2017, dated 2025).

Assays:
[1] = test system: Staphylococcus aureus, Stenotrophomonas maltophilia, and Pseudomonas aeruginosa; details: antibiotic 333 mg/L, LB Agar plates, UVC group 0
Method: Methods: A mixture of low-potassium-dextran lung perfusion solution and Lysogeny Broth (LB) media was spiked with 1,0×10^5 CFU/mL of Staphylococcus aureus, Stenotrophomonas maltophilia, and Pseudomonas aeruginosa. A mini EVLP and UVC irradiator was used (FIG. 7). After priming, the circuits were divided into three groups (n=4, each) and evaluated for 180 minutes: 1) Control (no treatment); 2) UVC (236 nm, 9 J/cm^2) and 3) Antibiotic (Imipenem/Cilastatin, 333 mg/L). Samples were taken at different timepoints and analysed, using LB Agar culture plates and bacterial DNA qPCR assay.

[2] = Ex vivo lung function during 9 hours of EVLP of human donor lungs; details: PDT (MB 1 umol/L + red light) applied to circuit, 9 hours EVLP
Method: Human Lung Studies: effect of EVLP and light therapies into HCV titers: In order to evaluate the effect of EVLP itself and also as a platform for light-based therapies against HCV titers in the lung tissue and perfusate solution, 9 rejected human lungs from NAT+ HCV donors. Donor lungs were recovered using standard protocols and flushed with cold Low-Potassium Dextran (LPD) solution and preserved at 4° C. as routine clinical practice. Following the pre-EVLP flush, the lungs were placed in 2 independent EVLP circuits for 9 hours. One lung was the control group (standard EVLP protocol, (n=9), whereas the other lung was randomly subjected to different treatment conditions (n=3, each) (FIG. 13A): (1) Intense lung wash (replacement of perfusate solution and circuit after 3 h of EVLP); (2) Ultra Violet C (UVC) light (260 nm, 4 W) applied to EVLP perfusate; (3) Photodynamic Therapy (PDT), using Methylene Blue (MB) diluted in the perfusion solution (1 umol/L) associated with red light irradiation (630 nm, 20 mW/cm^2). The advantage of such design is that both control and treated lungs come from the same donor (same virus load as baseline). Tissue biopsies were collected from lower, and upper lobes of the lungs at baseline and every 3 h during perfusion and perfusate samples were collected hourly. All samples were assessed for viral load quantification using RealTime PCR assay. […]

[3] = Pre-clinical large animal lung transplant safety model (EVLP 6 h, left lung transplant, 4 h reperfusion); type: in vivo, Yorkshire male domestic pigs; details: PDT MB 1 umol/L + red light vs control and UVC
Method: In order to translate such approach to the clinical EVLP setting, the safety of applying UVC and PDT during EVLP was assessed using a pre-clinical large animal transplant model (FIG. 15D).
In this model, Yorkshire male domestic pigs (30-35 kg) were used, under anesthesia and mechanic ventilation. After lung withdrawal, lungs were preserved for 2 hours at 4° C., followed by EVLP for 6 hours. During EVLP, pig lungs were randomized for three groups (n=4, each): (1) Control (standard EVLP technique); (2) Ultra Violet C; (3) Photodynamic Therapy (PDT), using Methylene Blue (MB) diluted in the perfusion solution (1 umol/L) associated with red light irradiation. During EVLP, lung physiology was assessed (pulmonary vascular resistance, pulmonary artery pressure, left atrium (venous) pressure, peak airway pressure, plateau pressure, dynamic compliance, static compliance and gas exchange function-PO2); There was no difference in ex vivo lung function during 6 hours amongst the groups. After EVLP, the left lung was transplanted followed by 4 hours of reperfusion. Post-transplant blood gas samples were collected of the transplanted graft upper and lower pulmonary veins and the average of the partial pressure of arterial oxygen (PaO2)/fraction of inspired oxygen (FiO2) was calculated.

HCV JFH-1 strain = assay: Mini-EVLP circuit spiked with HCV JFH-1, infectivity loss in Huh 7.5.1 hepatocyte culture
HCV = assay: EVLP of HCV+ human donor lungs with light therapy, viral load by RealTime PCR
Method: Human Lung Studies: effect of EVLP and light therapies into HCV titers: In order to evaluate the effect of EVLP itself and also as a platform for light-based therapies against HCV titers in the lung tissue and perfusate solution, 9 rejected human lungs from NAT+ HCV donors. Donor lungs were recovered using standard protocols and flushed with cold Low-Potassium Dextran (LPD) solution and preserved at 4° C. as routine clinical practice. Following the pre-EVLP flush, the lungs were placed in 2 independent EVLP circuits for 9 hours. One lung was the control group (standard EVLP protocol, (n=9), whereas the other lung was randomly subjected to different treatment conditions (n=3, each) (FIG. 13A): (1) Intense lung wash (replacement of perfusate solution and circuit after 3 h of EVLP); (2) Ultra Violet C (UVC) light (260 nm, 4 W) applied to EVLP perfusate; (3) Photodynamic Therapy (PDT), using Methylene Blue (MB) diluted in the perfusion solution (1 umol/L) associated with red light irradiation (630 nm, 20 mW/cm^2). The advantage of such design is that both control and treated lungs come from the same donor (same virus load as baseline). Tissue biopsies were collected from lower, and upper lobes of the lungs at baseline and every 3 h during perfusion and perfusate samples were collected hourly. All samples were assessed for viral load quantification using RealTime PCR assay. The results were normalized for percentage of viral load decrease. To translate the application of light therapies to an EVLP system, a specific device suitable to be inserted inline in the EVLP circuit where different light wavelengths could be applied to treat the perfusion solution.

Compound	bacterial growth after 180 minutes of treatment [1] [colonies/plate]	ex vivo lung function during EVLP (delta P/F ratio, peak airway pressure, dynamic compliance) vs control lung [2]	post-transplant PaO2/FiO2 after 4 h of reperfusion, among the groups ([3]; pig left lung transplant)	ex vivo lung function during 6 hours EVLP amongst the groups ([3]; pig lungs)	perfusion time after which no infectivity was observed (HCV JFH-1 strain; PDT group, red light 630 nm, 20 mW/cm^2, JFH-1 1.5×10^6 copies/mL, 37° C.) [min]	effect on HCV infectivity with ambient (room) light activation compared with red light (HCV JFH-1 strain; regular room light instead of red light)	decrease of HCV titers in human donor lungs (HCV; PDT using MB as photosensitizer, summary statement) [%]	HCV titers in lung tissue, % reduction (HCV; PDT: methylene blue 1 umol/L + red light 630 nm, 20 mW/cm^2, 9 h EVLP, lung tissue, control 75.46%) [%]	perfusate HCV titres (% reduction from baseline) (HCV; PDT: methylene blue 1 umol/L + red light 630 nm/20 mW/cm^2, 9 h EVLP, perfusate, control 69.49%) [%]
Imipenem/Cilastatin	15±2.3	–	–	–	–	–	–	–	–
CN(C)c1ccc2nc3ccc(=[N+](C)C)cc-3sc2c1 [Methylene blue]	–	no significant difference	no significant difference	no difference	15	weaker than with red light	98	90.96	97.87
